In one assay the target is T1, TP^Δ328 (Homo sapiens, UniProt P21731).
T1 construct: expressed in transfected cells
T1 sequence (P21731 1-328): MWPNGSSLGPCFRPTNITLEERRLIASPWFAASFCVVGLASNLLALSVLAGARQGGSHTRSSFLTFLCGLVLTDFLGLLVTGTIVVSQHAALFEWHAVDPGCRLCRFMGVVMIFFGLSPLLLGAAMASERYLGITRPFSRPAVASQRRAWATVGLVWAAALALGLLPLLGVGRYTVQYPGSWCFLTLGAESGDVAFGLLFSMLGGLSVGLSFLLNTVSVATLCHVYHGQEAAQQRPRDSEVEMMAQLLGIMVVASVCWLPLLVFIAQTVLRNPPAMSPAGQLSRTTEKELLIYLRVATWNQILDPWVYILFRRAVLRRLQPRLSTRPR
Nature of the assay: [3H]SQ29,548 radioligand binding, Scatchard analysis, HEK.TP^Δ328. As to the method: Cells were harvested by centrifugation at 500×g at 4 °C for 5 min and washed three times with ice-cold Ca^2+/Mg^2+-free phosphate-buffered saline (PBS). TP radioligand binding assays were carried out at 30 °C for 30 min in 100 μl reactions in the presence of 0–40 nM [^3H] […] Protein determinations were carried out using the Bradford assay.
Radioligand binding and Scatchard analysis data were analysed using GraphPad Prisim V4.0 programme (GraphPad Software Inc., San Diego CA, USA). Statistical analyses were carried out using the unpaired Student's t test using the Statworks Analysis Package. p-values ≤ 0.01 indicated statistically significant differences.

For another assay, the target named is T2, TPα (Homo sapiens, UniProt P21731).
T2 construct: expressed in transfected cells
T2 sequence (P21731 1-343): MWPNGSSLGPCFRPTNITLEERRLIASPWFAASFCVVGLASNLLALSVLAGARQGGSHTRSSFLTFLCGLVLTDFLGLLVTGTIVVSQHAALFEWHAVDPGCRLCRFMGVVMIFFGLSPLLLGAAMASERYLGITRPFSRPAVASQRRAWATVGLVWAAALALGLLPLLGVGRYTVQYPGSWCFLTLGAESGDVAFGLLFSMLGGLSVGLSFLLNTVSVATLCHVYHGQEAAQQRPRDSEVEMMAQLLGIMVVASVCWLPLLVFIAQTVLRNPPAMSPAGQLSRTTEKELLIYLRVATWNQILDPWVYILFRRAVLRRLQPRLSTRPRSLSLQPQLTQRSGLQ
Nature of the assay: Agonist-mediated TP phosphorylation in whole cells, HEK.TPα. It counts as cell-based. The following applies: 1 μM U46619 10 min, [32P]orthophosphate labelling, PhosphorImage. The procedure:
Agonist-mediated TP phosphorylation in whole cells (1.8–2 × 10^6 cells/10 cm dish) was performed essentially as previously described. Briefly, cells were transiently co-transfected with pADVA (10 μg), pCMV:Gαq (25 μg) plus pcDNA:βArrestin2 (25 μg) approximately 48 h prior to labelling. Thereafter, cells were washed once in phosphate-free DMEM, 10% dialysed FBS and were metabolically labelled for 60 min in the same medium (2 ml/10 cm dish) containing 100 μCi/ml [^32P] orthophosphate (8000–9000 Ci/mmol) at 37 °C, 5% CO2. Where appropriate, the PKG kinase inhibitor KT 5823 (50 nM) or its vehicle was added during the labelling period. Thereafter, U46619 (1 μM) or an equivalent volume of vehicle (0.01% ethanol in HBS; 20 μl) were added and cells were incubated for 10 min at 37 °C, 5% CO2. Reactions were terminated by transferring the dishes to ice and aspirating the labelled medium and HA-epitope tagged TP receptors were processed and immunoprecipitated using the anti-HA 101R antibody as previously described. Electroblots were then exposed to Xomat XAR (Kodak) film to detect ^32P-labelled proteins. Thereafter, blots were subject to phosphorimage analysis, and the intensities of agonist-induced phosphorylation were expressed in arbitrary units relative to basal (vehicle-stimulated) levels. In parallel experiments, cells were incubated under identical conditions in the absence of [^32P] orthophosphate; HA-tagged TP receptors were immunoprecipitated from the same cell lines using the anti-HA 101R antibody and immunoblots were screened using the anti-HA 3F10 horseradish peroxidase-conjugated antibody.

We go through 2 molecules from paper PMC2680961, “Homologous desensitization of signalling by the alpha (α) isoform of the human thromboxane A2 receptor: A specific role for nitric oxide signalling” (Biochimica et Biophysica Acta, 2007).

SMILES strings stand for the structures. Several values for one entry are separate records, joined by “and”; a condition that tells them apart may be missing. Identical values can stand only once.

For the molecule `O=C(O)CCC/C=C\C[C@@H]1[C@H](CNNC(=O)Nc2ccccc2)[C@H]2CC[C@@H]1O2` [SQ29,548], the “Bmax (pmol/mg protein ± S.E.M.)” value at TP^Δ328 came to 4.47 ± 0.04 pmol/mg protein. For `CCCCC[C@H](O)/C=C/[C@@H]1[C@@H](C/C=C\CCCC(=O)O)[C@H]2CO[C@@H]1C2` [U46619], the “U46619-mediated TPα phosphorylation relative to basal (vehicle)” value at TPα was 5–7 fold and 5 fold.
